Test results as given in PubChem BioAssay AID467 (The Scripps Research Institute Molecular Screening Center, 2006).
Active and inactive are the calls of the source. No rule for the calls is given here.

What follows are compounds tested on parental cell line counter screen, S1P1 agonist assay readout (assay: signal in parental cells, counter-screen for S1P1 agonist project (AID 467);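 also: agonist potency measured against forskolin stimulation plus an EC20 level of SEW2871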).

`Cc1cccc(N2CCN(C(=O)C3CCCN(S(=O)(=O)c4cccc5cccnc45)C3)CC2)c1C` (configuration not stated) was tested. Which EC50 did it give?
The EC50 was 28.7 µM (inactive).

`CC1(C)CC(=O)C(C=Nc2ccc3[nH]ncc3c2)=C(O)C1` was tested. Which EC50 did it give?
The EC50 was > 30 µM (inactive).

`CCOc1ccc(C2CC(c3cccc(OC)c3OC)n3nnnc3N2)cc1Cl` (configuration not stated) was tested. Which EC50 did it give?
Its EC50 is > 95.1 µM (inactive).

`COc1ccc(-n2c(C)cc(C(=O)CSc3nnc(-c4cccs4)o3)c2C)cc1` was tested. Which EC50 did it give?
Its EC50 is 32.3 µM (inactive).

For `Cc1cc(C(=O)N2CCN(C(c3ccccc3)c3ccccc3)CC2)no1`, which EC50 is on record?
Its EC50 is > 95.1 µM (inactive).

Which EC50 does the source give for `O=C(Nc1ccc(S(=O)(=O)NCc2ccco2)cc1)c1ccc2ccccc2n1` here?
Its EC50 is > 95.1 µM (inactive).

`O=c1c(-c2ccc3c(c2)OCCO3)c(C(F)(F)F)oc2cc(O)cc(O)c12` was tested. Which EC50 did it give?
The EC50 was 18.4 µM (inactive).

For `Fc1ccccc1COc1ccc(/C=N/n2cnnc2)cc1`, which EC50 is on record?
The EC50 was > 95.1 µM (inactive).

Which EC50 does the source give for `COCCn1c(C)cc(C(=O)CSc2nc3ccccc3c(=O)[nH]2)c1C` here?
Its EC50 is > 95.1 µM (inactive).

Which EC50 does the source give for `CCOC(=O)c1c(C)[nH]c(C(=O)C(C)OC(=O)c2cccc(OCc3c(C)noc3C)c2)c1C` (configuration not stated) here?
Its EC50 is 20.1 µM (inactive).

Which EC50 does the source give for `COc1ccc(-n2nc3ccc(NS(C)(=O)=O)cc3n2)cc1Cl` here?
Its EC50 is > 95.1 µM (inactive).

`Cc1ccc(C(=O)c2cncc(Br)c2)cc1` was tested. Which EC50 did it give?
The EC50 was > 95.1 µM (inactive).

With `Nc1nonc1C(=O)NCCNCc1cc(Br)ccc1OCc1ccc(F)cc1` as the compound, how does the EC50 read?
The EC50 was 30.5 µM (inactive).

For `Clc1ccc(OCCN2CCN(c3ncnc4sccc34)CC2)cc1`, which EC50 is on record?
Its EC50 is 2.63 µM.

`Cc1ccccc1OCC(=O)Nc1ccc(N2CCN(C(=O)C(C)C)CC2)c(Cl)c1` was tested. Which EC50 did it give?
Its EC50 is 26 µM (inactive).

With `COc1ccc(OC)c(-c2cc(C(=O)Nc3c(C)nn(Cc4ccc(Cl)cc4)c3C)no2)c1` as the compound, how does the EC50 read?
The EC50 was > 95.1 µM (inactive).

`Cc1ccc(-n2ncc3c(N4CCCC(C)C4)ncnc32)c(C)c1` (configuration not stated) was tested. Which EC50 did it give?
Its EC50 is 36.1 µM (inactive).

For `COc1cccc2sc(Nc3nc(-c4ccccn4)cs3)nc12`, which EC50 is on record?
Its EC50 is 8.08 µM.

How did the EC50 turn out when `O=C(Nc1c(F)cc(F)cc1Br)c1cc(-c2ccc(O)cc2)on1` was run?
Its EC50 is 53.6 µM (inactive).

`Cc1noc(/C=C/N(C)C)c1S(=O)(=O)N1CCc2ccccc21` was tested. Which EC50 did it give?
Its EC50 is > 95.1 µM (inactive).

How did the EC50 turn out when `CCCc1cc(C(=O)Nc2sc3c(c2C#N)CCC3)no1` was run?
The EC50 was > 95.1 µM (inactive).

With `COc1ccc(-c2nc(-c3cccc(C(F)(F)F)c3)no2)cc1OC` as the compound, how does the EC50 read?
Its EC50 is > 95.1 µM (inactive).

With `Cc1cccc(-c2nc(CSCC(=O)N3CCN(Cc4ccc5c(c4)OCO5)CC3)c(C)o2)c1` as the compound, how does the EC50 read?
The EC50 was 30.5 µM (inactive).

`Cn1c(-c2c(N)n(C3CCCC3)c3nc4ccccc4nc23)nc2ccccc21` was tested. Which EC50 did it give?
Its EC50 is 1.96 µM.

Which EC50 does the source give for `CCN(C1CCCCC1)S(=O)(=O)c1ccc(S(=O)(=O)NCc2ccncc2)cc1` here?
The EC50 was 76.5 µM (inactive).

With `CC(=O)Nc1ccccc1OCC(=O)c1cc(C)n(Cc2cccs2)c1C` as the compound, how does the EC50 read?
The EC50 was 10.5 µM (inactive).

`O=S(=O)(NCc1cn2ccsc2n1)c1ccc(Oc2ccccc2)cc1` was tested. Which EC50 did it give?
The EC50 was 45.3 µM (inactive).

How did the EC50 turn out when `COc1ccc(-c2noc(-c3cc(C)cc(C)c3)n2)cc1OC` was run?
Its EC50 is > 95.1 µM (inactive).

Which EC50 does the source give for `COc1ccc(-c2cc(C(=O)NC3CCCC3)no2)cc1OC` here?
The EC50 was > 95.1 µM (inactive).

For `CCc1cc(-c2[nH]ncc2-c2ccc3c(c2)OCO3)c(O)cc1O`, which EC50 is on record?
The EC50 was 9.08 µM.

Which EC50 does the source give for `O=C(c1cc(-c2ccccc2)on1)N1CCN(Cc2ccc3c(c2)OCO3)CC1` here?
The EC50 was > 30 µM (inactive).

How did the EC50 turn out when `CCCn1c(CN2CCN(c3cccc(Cl)c3)CC2)nc2c1c(=O)n(C)c(=O)n2C` was run?
The EC50 was > 95.1 µM (inactive).

Which EC50 does the source give for `O=C(NCc1ccco1)C1CCN(C(=O)c2cc3sccc3n2Cc2ccc(Cl)cc2)CC1` here?
The EC50 was 22.4 µM (inactive).

Which EC50 does the source give for `O=C(Nc1ccc(OC(F)F)c(Cl)c1)Nc1ccc2c(c1)OCO2` here?
The EC50 was > 10 µM (inactive).

Which EC50 does the source give for `Cc1ccc(Cl)cc1N1CCN(C(=O)C2CCN(c3nnc(-n4cccc4)s3)CC2)CC1` here?
The EC50 was > 95.1 µM (inactive).

`Cc1ccc(C)c(-n2nnnc2Sc2nnnn2-c2ccccc2)c1` was tested. Which EC50 did it give?
Its EC50 is 6.91 µM.

Which EC50 does the source give for `Nc1nnnn1/N=C/C(Br)=C/c1ccccc1` here?
Its EC50 is 4.08 µM.

`COc1ccc2c(c1)CCc1c(C(=O)Nc3ccc(OC)c(OC)c3)noc1-2` was tested. Which EC50 did it give?
The EC50 was > 95.1 µM (inactive).

`CS(=O)(=O)n1nc(OC(=O)c2cccc3ccccc23)cc1N` was tested. Which EC50 did it give?
Its EC50 is 12 µM (inactive).

With `COC(=O)c1cc(NCc2ccccc2F)ccc1N1CCOCC1` as the compound, how does the EC50 read?
Its EC50 is > 95.1 µM (inactive).

How did the EC50 turn out when `Cc1nc2sc(-c3ccccc3)cc2c(=O)n1-n1cccc1` was run?
The EC50 was > 95.1 µM (inactive).

With `CCn1c(SCC(=O)Nc2nc3ccc(C)cc3s2)nc2c(c1=O)SC(C)C2` (configuration not stated) as the compound, how does the EC50 read?
Its EC50 is > 10 µM (inactive).

`CN(C)S(=O)(=O)c1ccc(C(=O)Nc2nc(-c3cccs3)cs2)cc1` was tested. Which EC50 did it give?
The EC50 was > 95.1 µM (inactive).

How did the EC50 turn out when `CCOC(=O)c1cccc2c1-c1ccccc1/C2=N/O` was run?
Its EC50 is 12 µM (inactive).

With `CC(C)Cc1cc(C(=O)Nc2sc3c(c2C#N)CCCC3)no1` as the compound, how does the EC50 read?
The EC50 was > 95.1 µM (inactive).

For `Cc1ccc(-n2c(C)cc(C(=O)COC(=O)c3c(C)noc3C)c2C)cc1`, which EC50 is on record?
The EC50 was 37.6 µM (inactive).

With `CCOc1ccc(-c2nc(-c3ccncc3)no2)cc1OCC` as the compound, how does the EC50 read?
Its EC50 is > 95.1 µM (inactive).

For `Cc1cccc(-c2nc(CSCC(=O)N3CCN(c4ccccn4)CC3)c(C)o2)c1`, which EC50 is on record?
The EC50 was 31 µM (inactive).

`CC(C)OCCCNc1ncnc2c1[nH]c1ccccc12` was tested. Which EC50 did it give?
Its EC50 is 43 µM (inactive).

Which EC50 does the source give for `CCCCn1ccnc1C(=O)c1cccc(S(=O)(=O)N2c3ccccc3CC2C)c1` (configuration not stated) here?
The EC50 was > 95.1 µM (inactive).

`Nn1c(Nc2ccccc2)nc2sc3c(c2c1=O)CCC3` was tested. Which EC50 did it give?
The EC50 was > 30 µM (inactive).

Which EC50 does the source give for `CCCn1c(CNc2ccc(Br)cc2)nc2ccccc21` here?
The EC50 was 38.1 µM (inactive).

How did the EC50 turn out when `CCCCc1ccc(C2C(C#N)=C(N)SC(N)=C2C#N)s1` was run?
Its EC50 is 16.8 µM (inactive).

`Clc1ccc(OCc2nnc(-c3ccccc3Br)o2)c(Cl)c1` was tested. Which EC50 did it give?
Its EC50 is > 95.1 µM (inactive).

How did the EC50 turn out when `CCOC(=O)C1CCN(c2ncnc3c2oc2ccccc23)CC1` was run?
The EC50 was 45.1 µM (inactive).

For `COc1ccc(-n2c(C)c(C(C)=O)c3cc(O)ccc32)cc1`, which EC50 is on record?
The EC50 was > 95.1 µM (inactive).

How did the EC50 turn out when `Cn1nc(CC(=O)Nc2ccc(N3CCN(C(=O)OC(C)(C)C)CC3)cc2)c2ccccc2c1=O` was run?
Its EC50 is > 95.1 µM (inactive).

Which EC50 does the source give for `Oc1ccc(-c2nnc(SCC3CCCCC3)o2)cc1` here?
Its EC50 is > 10 µM (inactive).

`CCOc1nc(-c2ccccc2)ccc1-c1noc(-c2ccco2)n1` was tested. Which EC50 did it give?
Its EC50 is > 95.1 µM (inactive).

How did the EC50 turn out when `CCOc1ccc(C(C)=O)cc1N1C(=O)C2C3C=CC(O3)C2C1=O` (configuration not stated) was run?
The EC50 was 4.31 µM.

With `CCCS(=O)(=O)c1nnnn1-c1cccc(OC)c1` as the compound, how does the EC50 read?
Its EC50 is 0.988 µM.

Which EC50 does the source give for `CCCC(=O)Nc1ccc(-c2nc3cc(C)ccc3o2)cc1` here?
Its EC50 is > 95.1 µM (inactive).

How did the EC50 turn out when `Cc1cc(N2CCN(c3nc4ccccc4s3)CC2)n2ncnc2n1` was run?
Its EC50 is > 95.1 µM (inactive).

For `O=C(NCc1ccccc1)N1CCN(c2ccc(Cl)c(Cl)c2)CC1`, which EC50 is on record?
Its EC50 is > 95.1 µM (inactive).

`CCSc1nc(N2CCOCC2)c2c(c1C#N)CCCC2` was tested. Which EC50 did it give?
Its EC50 is > 95.1 µM (inactive).

`C=C(C)COc1ccc(-c2nc(N)nc(C)c2Oc2ccccc2OC)c(O)c1` was tested. Which EC50 did it give?
Its EC50 is > 10 µM (inactive).

For `CCN(CC)S(=O)(=O)c1cccc(S(=O)(=O)c2cccc(S(=O)(=O)N(CC)CC)c2)c1`, which EC50 is on record?
Its EC50 is > 95.1 µM (inactive).

How did the EC50 turn out when `Cc1ccc(-c2nnc(SCc3ccccc3F)o2)cc1` was run?
The EC50 was > 95.1 µM (inactive).

For `Cn1nc(C(C)(C)C)cc1C(=O)NCc1ccc(N2CCCC2=O)cc1`, which EC50 is on record?
Its EC50 is > 30 µM (inactive).

With `CCn1c(-c2cccc(Cl)c2)n[nH]c1=S` as the compound, how does the EC50 read?
Its EC50 is > 95.1 µM (inactive).

For `COc1ccc(N2CCn3c2nc2c3c(=O)n(CCCc3ccccc3)c(=O)n2C)c(OC)c1`, which EC50 is on record?
The EC50 was > 10 µM (inactive).

With `c1ccc(CSc2nnc(-c3c[nH]c4ccccc34)o2)cc1` as the compound, how does the EC50 read?
Its EC50 is 41.4 µM (inactive).
